# Molecular target: T1, Human M4 (Homo sapiens, UniProt P08173)
# T1 construct: expressed in transfected cells
# T1 sequence (P08173 1-479): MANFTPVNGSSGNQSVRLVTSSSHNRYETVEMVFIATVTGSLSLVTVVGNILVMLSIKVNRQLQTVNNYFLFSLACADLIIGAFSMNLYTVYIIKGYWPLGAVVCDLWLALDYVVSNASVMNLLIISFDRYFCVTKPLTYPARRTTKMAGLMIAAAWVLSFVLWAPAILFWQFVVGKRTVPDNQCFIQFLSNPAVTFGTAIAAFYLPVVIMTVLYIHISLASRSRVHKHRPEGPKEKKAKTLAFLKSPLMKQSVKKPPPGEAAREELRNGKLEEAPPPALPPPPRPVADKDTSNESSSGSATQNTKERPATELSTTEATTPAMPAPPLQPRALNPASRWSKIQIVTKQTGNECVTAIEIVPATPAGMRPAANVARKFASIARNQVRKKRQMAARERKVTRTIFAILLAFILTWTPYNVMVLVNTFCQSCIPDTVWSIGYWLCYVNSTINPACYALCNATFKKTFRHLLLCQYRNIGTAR
# Assay: mAChR M4 cell-based functional assay (calcium flux, PAM mode)
# Details: hM4-Gqi5 CHO-K1 cells; for Emax at 30 µM: CHO-K1, % ACh maximum at 30 μM; for EC50: concentration-dependent increase in the EC20 acetylcholine response
# Description: Human and rat M4 cDNAs, along with the chimeric G protein Gqi5, were transfected into Chinese hamster ovary (CHO-K1) cells purchased from the American Type Culture Collection using Lipofectamine2000. hM4-Gqi5 cells were grown in Ham's F-12 medium containing 10% heat-inactivated fetal bovine serum (FBS), 20 mM HEPES, 50 μg/mL G418 sulfate, and 500 μg/mL Hygromycin B. rM4-Gqi5 cells were grown in DMEM containing 10% heat-inactivated FBS, 20 mM HEPES, 400 μg/mL G418 sulfate, and 500 μg/mL Hygromycin B.
# For high throughput measurement of agonist-evoked increases in intracellular calcium, CHO-K1 cells stably expressing muscarinic receptors were plated in growth medium lacking G418 and hygromycin at 15,000 cells/20 μL/well in Greiner 384-well black-walled, tissue culture (TC)-treated, clear-bottom plates (VWR). Cells were incubated overnight at 37° C. and 5% CO2. The next day, cells were washed using an ELX 405 (BioTek) with assay buffer; the final volume was then aspirated to 20 μL. Next, 20 μL of a 2.3 μM stock of Fluo-4/acetoxymethyl ester (Invitrogen, Carlsbad, CA), prepared as a 2.3 mM stock in DMSO and mixed in a 1:1 ratio with 10% (w/v) Pluronic F-127 and diluted in assay buffer, was added to the wells and the cell plates were incubated for 50 min at 37° C. and 5% CO2. Dye was removed by washing with the ELX 405 and the final volume was aspirated to 20 μL. Compound master plates were formatted in an 11 point concentration-response curve (CRC) format (1:3 dilutions) in 100% DMSO with a starting concentration of 10 mM using a BRAVO liquid handler (Agilent). Test compound CRCs were then transferred to daughter plates (240 nL) using the Echo acoustic plate reformatter (Labcyte, Sunnyvale, CA) and then diluted into assay buffer (40 μL) to a 2× stock using a Thermo Fisher Combi (Thermo Fisher Scientific, Waltham, MA).
# Calcium flux was measured using the Functional Drug Screening System (FDSS) 6000 or 7000 (Hamamatsu Corporation, Tokyo, Japan) as an increase in the fluorescent static ratio. Compounds were applied to cells (20 μL, 2×) using the automated system of the FDSS at 2-4 seconds into the protocol and the data were collected at 1 Hz. At 144 seconds, 10 μL of an EC20 concentration of the muscarinic receptor agonist acetylcholine was added (5×), followed by the addition of 12 μL of an EC80 concentration of acetylcholine at the 230 second time point (5×). Agonist activity was analyzed as a concentration-dependent increase in calcium mobilization upon compound addition. Positive allosteric modulator activity was analyzed as a concentration-dependent increase in the EC20 acetylcholine response. Antagonist activity was analyzed as a concentration-dependent decrease in the EC80 acetylcholine response. Concentration-response curves were generated using a four-parameter logistical equation in XLFit curve fitting software (IDBS, Bridgewater, NJ) for Excel (Microsoft, Redmond, WA) or Prism (GraphPad Software, Inc., San Diego, CA).
# Compounds were synthesized as described above. Activity (EC50 and Emax) was determined in the mAChR M4 cell-based functional assay as described above and the data are shown in Table 2. The compound number corresponds to the compound numbers used in Examples 1 to 11 and Tables 1.
SMILES,Emax at 30 µM,EC50,Human M4 Emax (%)* (% ACh maximum at 30 μM)
"[2H]C1(Oc2ccc3c(c2)OCCO3)CCN(c2nn3c(=O)c(F)c(C)nc3cc2C)CC1 [Compound 50, 7-(4-((2,3-dihydrobenzo[b][1,4]dioxin-6-yl)oxy)piperidin-1-yl-4-d)-3-fluoro-2,8-dimethyl-4H-pyrimido[1,2-b]pyridazin-4-one]",93%,9 nM,
"[2H]C1([2H])Oc2ccc(O[C@H]3CCN(c4nn5c(=O)ccnc5c(C)c4C)C[C@H]3F)cc2OC1([2H])[2H] [Compound 119, 7-((3R,4S)-4-((2,3-dihydrobenzo[b][1,4]dioxin-6-yl-2,2,3,3-d4)oxy)-3-fluoropiperidin-1-yl)-8,9-dimethyl-4H-pyrimido[1,2-b]pyridazin-4-one]",114%,51 nM,
"[2H]C1([2H])Oc2ccc(O[C@H]3CCN(c4nn5c(=O)ccnc5cc4C)C[C@@H]3F)cc2OC1([2H])[2H] [Compound 42, 7-((3S,4S)-4-((2,3-dihydrobenzo[b][1,4]dioxin-6-yl-2,2,3,3-d4)oxy)-3-fluoropiperidin-1-yl)-8-methyl-4H-pyrimido[1,2-b]pyridazin-4-one]",105%,52 nM,
"[2H]C1(Oc2ccc3c(c2)OCO3)CCN(c2nn3c(=O)cc(C)nc3cc2C)CC1 [Compound 58, 7-(4-(benzo[d][1,3]dioxol-5-yloxy)piperidin-1-yl-4-d)-2,8-dimethyl-4H-pyrimido[1,2-b]pyridazin-4-one]",88%,52 nM,
"COc1ncc(OC2CCN(c3nn4c(=O)ccnc4cc3C)CC2)cc1C [Compound 75, 7-(4-((6-methoxy-5-methylpyridin-3-yl)oxy)piperidin-1-yl)-8-methyl-4H-pyrimido[1,2-b]pyridazin-4-one]",84%,1510 nM,
"[2H]C1([2H])Oc2ccc(O[C@@H]3CCN(c4nn5c(=O)ccnc5c(C)c4C)C[C@@H]3F)cc2OC1([2H])[2H] [Compound 118, 7-((3S,4R)-4-((2,3-dihydrobenzo[b][1,4]dioxin-6-yl-2,2,3,3-d4)oxy)-3-fluoropiperidin-1-yl)-8,9-dimethyl-4H-pyrimido[1,2-b]pyridazin-4-one]",115%,34 nM,
"[2H]C1([2H])Oc2ccc(OC3CCN(c4nn5c(=O)cc(C6CC6)nc5cc4C)CC3)cc2OC1([2H])[2H] [Compound 10, 2-Cyclopropyl-7-(4-((2,3-dihydrobenzo[b][1,4]dioxin-6-yl-2,2,3,3-d4)oxy)piperidin-1-yl)-8-methyl-4H-pyrimido[1,2-b]pyridazin-4-one]",73%,87 nM,
"Cc1cc(=O)n2nc(N3CCC(Oc4ccc5c(c4)C(=O)NCC5)CC3)c(C)cc2n1 [Compound 72, 2,8-dimethyl-7-(4-((1-oxo-1,2,3,4-tetrahydroisoquinolin-7-yl)oxy)piperidin-1-yl)-4H-pyrimido[1,2-b]pyridazin-4-one]",74%,1540 nM,
"[2H]C1([2H])Oc2ccc(OC3CCN(c4nn5c(=O)cc(C(C)C)nc5c(C)c4C)CC3)cc2OC1([2H])[2H] [Compound 99, 7-(4-((2,3-dihydrobenzo[b][1,4]dioxin-6-yl-2,2,3,3-d4)oxy)piperidin-1-yl)-2-isopropyl-8,9-dimethyl-4H-pyrimido[1,2-b]pyridazin-4-one]",90%,131 nM,
"[2H]C1([2H])Oc2ccc(OC3CCN(c4nn5c(=O)ccnc5c(C)c4C4CC4)CC3)cc2OC1([2H])[2H] [Compound 21, 8-cyclopropyl-7-(4-((2,3-dihydrobenzo[b][1,4]dioxin-6-yl-2,2,3,3-d4)oxy)piperidin-1-yl)-9-methyl-4H-pyrimido[1,2-b]pyridazin-4-one]",,2070 nM,82%
"[2H]C1([2H])Oc2ccc(OC3CCN(c4nn5c(=O)c(C)c(C)nc5cc4C)CC3)cc2OC1([2H])[2H] [Compound 4, 7-(4-((2,3-Dihydrobenzo[b][1,4]dioxin-6-yl-2,2,3,3-d4)oxy)piperidin-1-yl)-2,3,8-trimethyl-4H-pyrimido[1,2-b]pyridazin-4-one]",90%,36 nM,
"[2H]C1([2H])Oc2ccc(OC3CCN(c4nn5c(=O)c(C)cnc5cc4C)CC3)cc2OC1([2H])[2H] [Compound 29, 7-(4-((2,3-dihydrobenzo[b][1,4]dioxin-6-yl-2,2,3,3-d4)oxy)piperidin-1-yl)-3,8-dimethyl-4H-pyrimido[1,2-b]pyridazin-4-one]",80%,43 nM,
"Cc1cc2nccc(=O)n2nc1N1CC[C@H](Oc2ccc3c(c2)OCCO3)[C@@H](C)C1 (single isomer, unassigned) [Compound 115, 7-((3S,4S) or (3R, 4R))-4-((2,3-dihydrobenzo[b][1,4]dioxin-6-yl)oxy)-3-methylpiperidin-1-yl)-8-methyl-4H-pyrimido[1,2-b]pyridazin-4-one]",78%,1560 nM,
"[2H]C1([2H])CC(Oc2ccc3c(c2)OC([2H])([2H])C([2H])([2H])O3)CC([2H])([2H])N1c1nn2c(=O)ccnc2cc1C [Compound 137, 7-(4-((2,3-dihydrobenzo[b][1,4]dioxin-6-yl-2,2,3,3-d4)oxy)piperidin-1-yl-2,2,6,6-d4)-8-methyl-4H-pyrimido[1,2-b]pyridazin-4-one]",105%,45 nM,
"[2H]C1([2H])Oc2ccc(O[C@H]3CCN(c4nn5c(=O)cc(COC)nc5c(C)c4C)C[C@@H]3F)cc2OC1([2H])[2H] [Compound 120, 7-((3S,4S)-4-((2,3-dihydrobenzo[b][1,4]dioxin-6-yl-2,2,3,3-d4)oxy)-3-fluoropiperidin-1-yl)-2-(methoxymethyl)-8,9-dimethyl-4H-pyrimido[1,2-b]pyridazin-4-one]",106%,162 nM,
"Cc1cc2nccc(=O)n2nc1N1CC[C@@H](Oc2ccc3c(c2)OCCCO3)[C@H](F)C1 [Compound 55, 7-((3R,4R)-4-((3,4-dihydro-2H-benzo[b][1,4]dioxepin-7-yl)oxy)-3-fluoropiperidin-1-yl)-8-methyl-4H-pyrimido[1,2-b]pyridazin-4-one]",80%,135 nM,
"[2H]C1([2H])Oc2ccc(O[C@H]3CCN(c4nn5c(=O)c(F)c(C)nc5cc4C)C[C@@H]3F)cc2OC1([2H])[2H] [Compound 38, 7-((3S,4S)-4-((2,3-dihydrobenzo[b][1,4]dioxin-6-yl-2,2,3,3-d4)oxy)-3-fluoropiperidin-1-yl)-3-fluoro-2,8-dimethyl-4H-pyrimido[1,2-b]pyridazin-4-one]",107%,211 nM,
"Cc1cc2nccc(=O)n2nc1N1CCC(Oc2cc(F)c3c(c2)OCCO3)CC1 [Compound 135, 7-(4-((8-fluoro-2,3-dihydrobenzo[b][1,4]dioxin-6-yl)oxy)piperidin-1-yl)-8-methyl-4H-pyrimido[1,2-b]pyridazin-4-one]",98%,75 nM,
"Cc1cc2nccc(=O)n2nc1N1CCC(Oc2ccc(C(C)C)cc2)CC1 [Compound 90, 7-(4-(4-isopropylphenoxy)piperidin-1-yl)-8-methyl-4H-pyrimido[1,2-b]pyridazin-4-one]",63%,1110 nM,

# — patent publication US11884676B2, “Substituted pyrimido[1,2-b]pyridazines as positive allosteric modulators of the muscarinic acetylcholine receptor M4” (Vanderbilt University, priority 2020, dated 2024)
